Each structure is given as a SMILES string. Where a SMILES comes first, the peptide text is derived from it. [ ]: non-standard residue; d: D form. Arg(Me) = CNC(=N)NCCC[C@H](N)C(=O)O; d3Pal = N[C@H](Cc1cccnc1)C(=O)O; azaGly = NNC(=O)O

Type in all cases: toxicity, cell-based
Data set [1] relates to HEK-293T. As to the kind of experiment: Incucyte cell viability with HEK293T. The following applies: human, 10 µM, compound concentration 10 uM.
Data set [2] has as its system Fibroblast. As to the kind of experiment: Incucyte cell viability with human fibroblast. The settings on record: 10 µM, compound concentration 10 uM.
The subject of data set [3] is U2OS. The experiment in a line: Incucyte cell viability with U2OS. The settings on record: human, 10 µM, compound concentration 10 uM.
[4] abbreviates: 6 h, replicate number 1, timepoint 6 hours.
Where [5] appears, read: 6 h, replicate number 2, timepoint 6 hours.
Where [6] appears, read: 12 h, replicate number 1, timepoint 12 hours.
Setting [7] is: 12 h, replicate number 2, timepoint 12 hours.
[8] abbreviates: 18 h, replicate number 1, timepoint 18 hours.
[9] abbreviates: 18 h, replicate number 2, timepoint 18 hours.
[10] abbreviates: 24 h, replicate number 1, timepoint 24 hours.
Where [11] appears, read: 24 h, replicate number 2, timepoint 24 hours.
The mark [12] stands for this setting: 0 h, replicate number 1, timepoint 0 hours.
The mark [13] stands for this setting: 0 h, replicate number 2, timepoint 0 hours.
Note: unitless GR value; below 1 slowed growth and below 0 cell loss.

Regarding `C[C@@](Cc1c[nH]c2ccccc12)(NC(=O)Nc1ccc([N+](=O)[O-])cc1)C(=O)NCC1(c2ccccn2)CCCCC1`, the “Growth Rate” value in data set [1] (setting [4]) is -0.16; in data set [1] (setting [5]), -0.01; in data set [1] (setting [6]), -0.39; in data set [1] (setting [7]), -0.14; in data set [1] (setting [8]), -0.33; in data set [1] (setting [9]), -0.15. The “Growth Rate” value in data set [1] (setting [10]) was -0.26; in data set [1] (setting [11]) it was -0.13; in data set [2] (setting [4]) it was -0.69; in data set [2] (setting [5]), -0.88; in data set [2] (setting [6]), -0.66; in data set [2] (setting [7]) it was -0.59. Further, the “Growth Rate” value in data set [2] (setting [8]) was -0.63; in data set [2] (setting [9]) it was -0.53; in data set [2] (setting [10]) it was -0.6; in data set [2] (setting [11]) it was -0.51; in data set [3] (setting [12]), 0.29; in data set [3] (setting [4]), 0.28. Besides, the “Growth Rate” value was 0.12 in data set [3] (setting [5]); -0.03 in data set [3] (setting [6]); -0.2 in data set [3] (setting [7]); -0.21 in data set [3] (setting [8]); -0.3 in data set [3] (setting [9]); -0.26 in data set [3] (setting [10]). Besides, the “Growth Rate” value in data set [3] (setting [11]) is -0.21.

As to `C(#Cc1cccc(CN2CCOCC2)c1)CCN1CCCCC1`, the “Growth Rate” value in data set [1] (setting [12]) was found to be 0.61; in data set [1] (setting [13]) it was 0.63; in data set [1] (setting [6]) it was 0.91; in data set [1] (setting [8]) it was 0.78; in data set [1] (setting [10]), 0.73; in data set [2] (setting [4]) it was 0.03. For the same compound, the “Growth Rate” value in data set [2] (setting [5]) is recorded as 0.09; in data set [2] (setting [6]), 0.14; in data set [2] (setting [7]) it was 0.09; in data set [2] (setting [8]), 0.39; in data set [2] (setting [9]), 0.23; in data set [2] (setting [10]), 0.28. Also, the “Growth Rate” value is listed as 0.26 in data set [2] (setting [11]), 0.35 in data set [3] (setting [12]) and -1 in data set [3] (setting [13]).

Take `CN(c1ncccc1CNc1ccnc(-c2nc3c(F)c(Cl)ccc3[nH]2)n1)S(C)(=O)=O`: the “Growth Rate” value in data set [1] (setting [12]) is reported as -0.02; in data set [1] (setting [13]) it was 0.48; in data set [1] (setting [4]), 0.84; in data set [1] (setting [6]), 0.97; in data set [1] (setting [7]), 0.72; in data set [1] (setting [8]) it was 0.93. For the same compound, the “Growth Rate” value in data set [1] (setting [9]) is listed as 0.99; in data set [1] (setting [11]), 0.81; in data set [2] (setting [13]) it was 0.75; in data set [2] (setting [4]) it was -0.47; in data set [2] (setting [6]), 0.38; in data set [2] (setting [8]) it was 0.27. Also, the “Growth Rate” value in data set [2] (setting [10]) is listed as 0.36; in data set [2] (setting [11]), 0.92; in data set [3] (setting [12]) it was -0.62; in data set [3] (setting [13]), -0.69; in data set [3] (setting [4]), 0.1; in data set [3] (setting [5]), 0.61. Also, the “Growth Rate” value is 0.15 in data set [3] (setting [6]); 0.66 in data set [3] (setting [7]); 0.62 in data set [3] (setting [8]); 0.87 in data set [3] (setting [9]); 0.78 in data set [3] (setting [10]); 0.72 in data set [3] (setting [11]).

As to `S=C(NCCCc1c[nH]cn1)NCCCN(Cc1ccc(Cl)c(Cl)c1)c1ccc(Br)cn1`, the “Growth Rate” value in data set [1] (setting [4]) was 0.16; in data set [1] (setting [5]), -0.21; in data set [1] (setting [6]), 0.08; in data set [1] (setting [8]), 0.15; in data set [1] (setting [9]) it was 0.19; in data set [1] (setting [10]) it was 0.15. Moreover, the “Growth Rate” value in data set [1] (setting [11]) was 0.2; in data set [2] (setting [12]), 0.28; in data set [2] (setting [13]), 0.91; in data set [2] (setting [4]), -0.23; in data set [2] (setting [5]), 0.5; in data set [2] (setting [6]) it was 0.17. Moreover, the “Growth Rate” value in data set [2] (setting [7]) was 0.18; in data set [2] (setting [8]), -0.18; in data set [2] (setting [9]), 0.55; in data set [2] (setting [10]) it was -0.16; in data set [2] (setting [11]), 0.74; in data set [3] (setting [13]) it was -1. In addition, the “Growth Rate” value in data set [3] (setting [7]) is recorded as 0.84; in data set [3] (setting [8]), 0.88; in data set [3] (setting [9]) it was 0.68; in data set [3] (setting [10]) it was 0.83; in data set [3] (setting [11]), 0.67.

`CNC(=N)NCCC[C@H](NC(=O)[C@H](CC(C)C)NC(=O)NNC(=O)[C@H](Cc1ccccc1)NC(=O)[C@H](CO)NC(=O)[C@H](CC(N)=O)NC(=O)[C@@H](Cc1cccnc1)NC(=O)[C@H](N)Cc1ccc(O)cc1)C(=O)NCC(N)=O` [KISS1-543] (H-[dY][d3Pal]NSF[azaGly]L[Arg(Me)]G-NH2): the “Growth Rate” value is on record as 0.75 in data set [1] (setting [12]); 0.71 in data set [1] (setting [13]); 0.69 in data set [1] (setting [4]); 0.68 in data set [1] (setting [6]); 0.68 in data set [1] (setting [8]); 0.71 in data set [1] (setting [10]). Also, the “Growth Rate” value is listed as 0.84 in data set [1] (setting [11]); 0.66 in data set [2] (setting [13]); 0.8 in data set [2] (setting [5]); 0.41 in data set [2] (setting [6]); 0.5 in data set [2] (setting [8]); 0.76 in data set [2] (setting [9]). The “Growth Rate” value was 0.46 in data set [2] (setting [10]); 0.72 in data set [2] (setting [11]); 0.72 in data set [3] (setting [13]); 0.84 in data set [3] (setting [4]); 0.89 in data set [3] (setting [7]); 0.99 in data set [3] (setting [9]). In addition, the “Growth Rate” value in data set [3] (setting [11]) was 1.

Turning to `COc1ccc2c(c1OCc1ccccc1)C[C@@H](C(=O)O)N(C(=O)C(c1ccccc1)c1ccccc1)C2` [OLODANRIGAN], the “Growth Rate” value in data set [1] (setting [4]) is reported as 0.62; in data set [1] (setting [5]), 0.64; in data set [1] (setting [6]) it was 0.74; in data set [1] (setting [8]), 0.8; in data set [1] (setting [10]), 0.86; in data set [2] (setting [12]), 0.93. Moreover, the “Growth Rate” value is on record as 0.27 in data set [2] (setting [13]); 0.24 in data set [2] (setting [4]); 0.83 in data set [2] (setting [10]); -1 in data set [3] (setting [13]); 0.89 in data set [3] (setting [7]); 0.98 in data set [3] (setting [9]).

Consider `COc1c(Nc2ccc(S(C)(=O)=O)nc2C)ncnc1OC1CCN(C(=O)OC(C)C)CC1` [ADP-597], for which the “Growth Rate” value stood at 0.29 in data set [1] (setting [4]); 0.45 in data set [1] (setting [6]); 0.51 in data set [1] (setting [8]); 0.74 in data set [1] (setting [10]); 0.94 in data set [2] (setting [13]); 0.72 in data set [2] (setting [4]). Moreover, the “Growth Rate” value was 0.53 in data set [2] (setting [6]); 0.7 in data set [2] (setting [7]); 0.34 in data set [2] (setting [8]); 0.88 in data set [2] (setting [10]); 0.98 in data set [3] (setting [8]); 1 in data set [3] (setting [10]).

Turning to `Br.Br.N=C(N)NCCSC(=N)N`, the “Growth Rate” value in data set [1] (setting [4]) worked out at 0.74; in data set [1] (setting [6]) it was 0.76; in data set [1] (setting [7]) it was 0.86; in data set [1] (setting [8]), 0.98; in data set [1] (setting [9]), 0.92; in data set [1] (setting [10]), 1. Further, the “Growth Rate” value in data set [1] (setting [11]) was found to be 0.81; in data set [2] (setting [13]), 0.9; in data set [2] (setting [4]), 0.23; in data set [2] (setting [5]) it was 0.98; in data set [2] (setting [6]), 0.19; in data set [2] (setting [8]) it was 0.54. Also, the “Growth Rate” value in data set [2] (setting [10]) is reported as 0.49; in data set [3] (setting [12]), -0.2; in data set [3] (setting [13]) it was 0.56; in data set [3] (setting [5]) it was 0.98; in data set [3] (setting [6]) it was 0.88; in data set [3] (setting [7]), 0.99. Besides, the “Growth Rate” value in data set [3] (setting [8]) is reported as 0.96; in data set [3] (setting [10]) it was 0.37.

Turning to `CC[C@H]1CN2CCc3cc(OC)c(OC)cc3[C@@H]2C[C@@H]1C[C@H]1NCCc2cc(OC)c(OC)cc21` [EMETINE], the “Growth Rate” value in data set [1] (setting [13]) is reported as 0.89; in data set [1] (setting [4]), -0.64; in data set [1] (setting [5]), -0.77; in data set [1] (setting [6]) it was -0.71; in data set [1] (setting [7]), -0.68; in data set [1] (setting [8]), -0.56. Besides, the “Growth Rate” value in data set [1] (setting [9]) is -0.65; in data set [1] (setting [10]) it was -0.45; in data set [1] (setting [11]), -0.51; in data set [2] (setting [13]) it was 0.68; in data set [2] (setting [4]) it was -0.4; in data set [2] (setting [5]), -0.75. Besides, the “Growth Rate” value in data set [2] (setting [6]) was -0.71; in data set [2] (setting [7]), -0.61; in data set [2] (setting [8]), -0.63; in data set [2] (setting [9]) it was -0.61; in data set [2] (setting [10]) it was -0.47; in data set [2] (setting [11]) it was -0.61. For the same compound, the “Growth Rate” value in data set [3] (setting [13]) is listed as -1; in data set [3] (setting [4]) it was 0.25; in data set [3] (setting [5]) it was 0.89; in data set [3] (setting [6]) it was 0.43; in data set [3] (setting [7]) it was 0.49; in data set [3] (setting [8]) it was 0.21. Also, the “Growth Rate” value in data set [3] (setting [9]) stood at 0.25; in data set [3] (setting [10]), 0; in data set [3] (setting [11]), 0.17.

Values taken from ChEMBL document CHEMBL5058564, “EUbOPEN Chemogenomics Library 2 (Incucyte)” (2022).
